From US9604947B2, “Substituted 5-imino-1,2,4-thiadiazoles that can be used to treat neurodegenerative diseases” (CONSEJO SUPERIOR DE INVESTIGACIONES CIENTIFICAS (CSIC), priority 2009, dated 2017)

Key:
in vitro = details: PAMPA
Description: Ten commercial reference drugs, phosphate buffer saline solution at pH 7.4 (PBS), DMSO and dodecane were purchased from Sigma, Acros organics, Aldrich and Fluka. […] Filter PDVF membrane units (diameter 30 mm, pore size 0.45 μm) from Symta were used to filtered the samples. A 96-well plate UV reader (Thermoscientific, Multiskan spectrum) was used for the UV measurements. […] These solutions were filtered. The acceptor 96-well microplate was filled with 180 μL of PBS:DMSO (95:5). The donor 96-well plate was coated with 4 μL of porcine brain lipid in dodecane (20 mg mL^−1) and after 5 minutes, 180 μL of each compound solution was added. 1-2 mg of every compound to be determined their ability to pass the BBB were dissolved in 250 μL of DMSO and 4750 μL of PBS pH 7.4 buffer, filtered and then added to the donor 96-well plate. Then the donor plate was carefully put on the acceptor plate to form a “sandwich”, which was left undisturbed for 4 h at 25° C.
During this time the compounds diffused from the donor plate through the brain lipid membrane into the acceptor plate. After incubation, the donor plate was removed. The concentration of compounds and commercial drugs in the acceptor and the donor wells was determined by UV plate reader. Every sample was analyzed from three to five wavelengths, in 3 wells and in at least three independent runs. […] 11 quality control compounds (previously mentioned) of known BBB permeability were included in each experiment to validate the analysis set.

PDE7A1 = biological target: T1, PDE7A1 (Homo sapiens, UniProt Q13946); assay: Determination of PDE7 inhibition (SPA, [3H]cAMP); format: biochemical; details: 1,2,4-thiadiazoles-5-imino substituted as hydrobromides; read-out: IC50 (PDE7A)
T1 construct: purchased Calbiochem 524751
Description: PDE-7 inhibition was performed with a commercial kit for the determination of phosphodiesterase activity (GE Healthcare Life Sciences, cat#TRKQ7090).
The compounds to be evaluated were incubated (in concentrations between 0.1 nM and 100 μM) in presence of 0.02 U/well of PDE7A1 (Calbiochem cat#524751) and 0.05 μCi of [^3H] cAMP, for 20 min at 30° C. in the assay buffer of kit (total volume=100 μl).
After this time, 50 μl of a suspension of 20 mg/ml microspheres of SPA of Ytrium silicate were added and was maintained under stirring at room temperature for 60 min. Finally, the plate was settled for 20 min and radioactivity was detected in a Microbeta Trilux reader.
In every assay there were included two points without PDE7A1 (blank) and two points with PDE7A1 without inhibitors (control).
Data Analysis: All the compounds were evaluated firstly at the concentration of 10 μM and the percentage of PDE7A1 inhibition was calculated, according to the following formula (cpm=counts per minute): % Inhibition=((cpm control−cpm sample)×100)/(cpm control−cpm blank assay).
For those compounds with % inhibition values above 45% it was calculated its inhibitory potency (IC50) building the dose-response curve.
The data were adjusted with the software Prism v 2.1 (GraphPad Software) using the non lineal fitting.

T1 sequence (Q13946 whole entry): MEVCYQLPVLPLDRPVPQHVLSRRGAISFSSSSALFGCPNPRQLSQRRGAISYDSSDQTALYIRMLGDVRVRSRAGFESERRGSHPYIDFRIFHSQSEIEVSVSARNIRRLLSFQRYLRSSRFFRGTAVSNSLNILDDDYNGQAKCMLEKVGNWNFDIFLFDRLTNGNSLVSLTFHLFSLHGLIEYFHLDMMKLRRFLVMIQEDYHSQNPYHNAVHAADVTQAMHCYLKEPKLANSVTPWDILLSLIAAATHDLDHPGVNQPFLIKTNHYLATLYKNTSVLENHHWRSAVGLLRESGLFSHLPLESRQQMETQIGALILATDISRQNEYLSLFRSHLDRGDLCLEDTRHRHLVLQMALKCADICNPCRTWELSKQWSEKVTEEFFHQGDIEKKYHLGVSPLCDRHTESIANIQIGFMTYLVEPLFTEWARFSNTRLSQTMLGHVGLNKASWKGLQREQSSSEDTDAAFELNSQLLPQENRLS

Br.OCCN=c1nc(-c2ccccc2)n(-c2ccccc2)s1 [VP-1.15, 5-(2-Hydroxyethylimino)-2,3-diphenyl-2,5-dihydro-1,2,4-thiadiazole hydrobromide]
Prediction (predictive penetration in the CNS) (in vitro): CNS+ | Papp at 4 h (in vitro; pH 7.4): 15.4 ± 2 ×10⁻⁶ cm/s | IC50 (PDE7A1): 1110 nM
